# Several values for one entry are separate records, joined by “and”; a condition that tells them apart may be missing. Equal entries are not always repeated. Where two headings read alike, the source gives them in different places.
# Assays:
# [1] = system: TMPRSS2; conditions: Caco-2 cells, 18 h treatment then washout
# [2] = system: SARS-CoV-2 (wildtype-USA-WA1/2020); assay type: cell-based
# [3] = system: TMPRSS2; conditions: for TMPRSS2 densitometry (relative to 0): Fig. 4B, Caco-2, 18 h, listed as HHT
# [4] = system: SARS-CoV-2 pseudovirus; assay type: cell-based
# [5] = system: E-cadherin; assay: Immunoblot of E-cadherin in Caco-2 cells; assay type: cell-based, human
# [6] = system: TMPRSS2-V5; assay type: cell-based, human
# [7] = system: DCAF1; assay: qPCR of DCAF1 gene expression in Caco-2 cells; assay type: cell-based, human
# [8] = system: SARS-CoV-2 pseudovirus; assay: microbe, parasite or virus in culture; assay type: cell-based; conditions: Severe acute respiratory syndrome-related coronavirus
# [9] = molecular target: TMPRSS2 (Homo sapiens, UniProt O15393); assay: TMPRSS2 activity assay (Boc-Gln-Ala-Arg-MCA fluorescence); assay type: biochemical; parameters: purchased LSBio; conditions: for TMPRSS2 activity (FigS9 source data): replicates
# Sequence of TMPRSS2 (Homo sapiens, UniProt O15393) (O15393 106-492): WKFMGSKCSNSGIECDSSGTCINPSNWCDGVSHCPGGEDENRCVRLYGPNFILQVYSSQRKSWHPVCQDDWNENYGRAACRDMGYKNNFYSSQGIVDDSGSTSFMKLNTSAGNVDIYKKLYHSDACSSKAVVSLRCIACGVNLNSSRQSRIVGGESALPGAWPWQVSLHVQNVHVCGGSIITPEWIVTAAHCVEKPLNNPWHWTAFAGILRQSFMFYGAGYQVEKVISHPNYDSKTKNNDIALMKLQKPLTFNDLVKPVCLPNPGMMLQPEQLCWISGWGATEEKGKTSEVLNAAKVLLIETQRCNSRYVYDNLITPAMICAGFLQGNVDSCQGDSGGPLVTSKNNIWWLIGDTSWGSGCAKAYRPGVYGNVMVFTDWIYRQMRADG
# Protocol: Fluorescence (380-15 nm excitation/470-20 nm emission) of the samples was monitored over 4:45 h and the slope of the curves was calculated by linear regression analysis and used as output for TMPRSS2 activity.
# [10] = in vitro; conditions: human
# [11] = system: corin; assay: RT-qPCR of CORIN mRNA in Caco-2 cells; assay type: cell-based, human; conditions: Fig. S3B, Caco-2, 6 hr, relative to Veh
# [12] = cited from earlier work
# [13] = system: SARS-CoV-2 pseudovirus; assay type: cell-based; remark: listed apart in the source
# [14] = system: TMPRSS2; conditions: Calu-3 cells
# [15] = system: Ace2-GFP; assay: Immunoblot of Ace2-GFP in Beas-2B cells; assay type: cell-based
# [16] = system: TMPRSS2
# [17] = system: SARS-CoV-2; conditions: cited from earlier work
# [18] = Fig. S3B, Caco-2, 6 hr, relative to Veh
structure (smiles),measurement,setting,value
COC(=O)C[C@](O)(CCCC(C)(C)O)C(=O)O[C@@H]1C(OC)=C[C@]23CCCN2CCc2cc4c(cc2[C@H]13)OCO4 [Homoharringtonine],recovery of TMPRSS2 levels after drug removal,[1],returned close to baseline roughly six hours after drug removal
same,EC50 observed in TMPRSS2-expressing Calu-3 cells,[2],in the sub-micromolar range
same,reduction of SARS-CoV-2 viral infection,[2],highly effective in reducing SARS-CoV-2 viral infection
same,time to substantial reduction in TMPRSS2 expression,"[3]; Caco-2 cells, 3 µM",within three hours
same,endogenous TMPRSS2 protein expression,"[3]; Caco-2 cells, 18 h",marked reduction
same,TMPRSS2 densitometry (relative to 0),[3]; head 0.3 (unit not given),0.2253 and 0.285
same,TMPRSS2 densitometry (relative to 0),[3]; head 1,0.1372 and 0.2276
same,TMPRSS2 densitometry (relative to 0),[3]; head 3,0.1102 and 0.1378
same,pseudoviral luciferase reporter signal,[4],dose-dependent reduction of the luciferase signal
same,signal relative to Control (FigS7 source data),[4],0.9261 and 0.5325 and 0.6307
same,E-cadherin protein,[5],unaffected
same,TMPRSS2-V5 versus LacZ-V5 expression,[6],selectively reduced TMPRSS2 expression
same,DCAF1 gene expression,"[7]; Caco-2, 3µM",do not affect DCAF1 gene expression
same,relative DCAF1 gene expression,"[7]; block Vehicle/HFG/HHT, replicates, listed as HHT",1.551 and 2.869 and 1.311
same,IC50,"[8]; Caco-2, read-out: In vitro IC50 (viral entry)",~30 nM
same,IC50,"[8]; Caco-2, read-out: concentration for 50% reduction in the level of pseudoviral entry",~300 nM
same,TMPRSS2 activity (FigS9 source data),[9]; 0.08 µM,0.4186 and 0.4254 and 0.3869 and 0.4813
same,TMPRSS2 activity (FigS9 source data),[9]; 0.4 µM,0.428 and 0.3513 and 0.3883 and 0.3736
same,TMPRSS2 activity (FigS9 source data),[9]; 2 µM,0.3803 and 0.3278 and 0.3209 and 0.2843
same,TMPRSS2 catalytic activity,"[9]; recombinant TMPRSS2, preliminary",do not inhibit TMPRSS2 activity
same,CC50,[10],> 10000 nM
same,CORIN mRNA expression,[11],1.163 and 0.982 and 0.932 and 0.999
same,clinical adverse events,[12],"grade III or IV adverse events, including severe myelosuppression"
same,toxicity profile,[12],relatively toxic agent with an adverse side effect profile
same,pseudoviral GFP expression,[13],markedly reduced levels of GFP expression
same,TMPRSS2 protein levels,[14],qualitatively similar decreases
same,Ace2 protein,[15],unaffected
same,TMPRSS2 transcription,[16]; Caco-2 cells,modestly increased
same,"TMPRSS2 mRNA expression, Set1",[16]; [18],2.5 and 2.009 and 1.288 and 1.873
same,"TMPRSS2 mRNA expression, set2",[16]; [18],2.103 and 1.771 and 1.821 and 2.33
same,"TMPRSS2 mRNA expression, set3",[16]; [18],2.872 and 1.654 and 1.63 and 2.705
same,EC50,[17],2100 nM
